Test results reported in patent US20040023884A1, “Biologically active peptides from functional domains of bactericidal/permeability-increasing protein and uses thereof” (priority 1993, published 2004).
Where two headings read alike, the source gives them in different places. Square brackets hold non-standard residues; d marks the D form. Ends that are not written are not given here. 1Nal = N[C@@H](Cc1cccc2ccccc12)C(=O)O; d1Nal = N[C@H](Cc1cccc2ccccc12)C(=O)O

Assays:
[1] = 3H-heparin binding assay (affinity and capacity); settings: for heparin binding capacity: direct heparin binding assay; for Heparin Capacity: heparin bound at saturation; for cpm ^3H-Heparin bound: 100 picomoles of each fragment per well, saturating 3H-heparin 20 μg/mL, mean of duplicate wells ± range
Description: Briefly, each fragment was added to wells of a 96-well microtiter plate having a polyvinylidene difluoride membrane (Immunobilon-P, Millipore, Bedford, Mass.) disposed at the bottom of the wells. […] Positive control wells contained varying amounts of rBPI23. […] DuPont-NEN, Wilmington, Del.) were made in the blocking buffer and incubated in the BPI peptide-containing wells for one hour at 4° C. The unbound heparin was aspirated and the wells were washed three times with blocking buffer, dried and removed for quantitation in a liquid scintillation counter (Model 1217, LKB, Gaithersburg, Md.). Although BSA in the blocking buffer did show a low affinity and capacity to bind heparin, this was considered physiologically irrelevant and the background was routinely subtracted from the test compound signal.

Staphylococcus aureus = assay: Radial diffusion bactericidal assay, Staphylococcus aureus; assay type: cell-based; settings: radial diffusion; PROBIT analysis; S. aureus
[2] = tested on: rough mutant E. coli J5 bacteria; assay: Radial diffusion bactericidal assay, E. coli J5; assay type: cell-based; settings: radial diffusion; for pmol added to well to achieve a 30 mm^2 bactericidal zone, E. coli J5: PROBIT analysis, E. coli J5 (rough); for bactericidal activity (in words): E. coli J5
Description: BPI proteolytic fragments produced according to Example 1 were screened for bactericidal effects using rough mutant E. coli J5 bacteria in a radial diffusion assay. Specifically, an overnight culture of E. coli J5 was diluted 1:50 into fresh tryptic soy broth and incubated for 3 hours at 37° C. to attain log phase growth of the culture. Bacteria were then pelleted at 3,000 rpm for 5 minutes in a Sorvall RT6000B centrifuge (Sorvall Instruments, Newton, Conn.). 5 mL of 10 mM sodium phosphate buffer (pH 7.4) was added and the preparation was re-pelleted. […] The bacteria were diluted to 4×10^6 CFU/mL in 10 mL of molten underlayer agarose (at approximately 45° C.) and inverted repeatedly to mix in 15 mL polypropylene tubes conventionally used for this purpose.
The entire contents of such tubes were then poured into a level square petri dish and distributed evenly by rocking the dish side-to-side. […] A series of wells were then punched into the hardened agarose using a sterile 3 mm punch attached to a vacuum apparatus. The punch was sterilized with 100% alcohol and allowed to air dry prior to use to avoid contaminating the bacterial culture.
5 or 10 μL of each of the BPI fragments were carefully pipetted into each well. As a negative control, dilution buffer (pH 8.3) was added to a separate well, and rBPI23 at concentrations of 5 μg/mL and 1 μg/mL were also added as positive controls. Each plate was incubated at 37° C. for 3 hours, and then 10 mL of molten overlayer agarose (at approximately 45° C.) was added into the level petri dish, allowed to harden and incubated overnight at 37° C. […] The bacterial zones were measured with a micrometer.

[3] = tested on: E. coli 0111:B4 (smooth) bacteria; assay: Radial diffusion bactericidal assay, E. coli 0111:B4; assay type: cell-based; settings: radial diffusion; PROBIT analysis; E. coli O111:B4 (smooth)
[4] = read-out: Kd of heparin binding

Row | Substance | Heparin Capacity [1] | Kd ([1]; read-out: Heparin Affinity) | pmol added to well to achieve a 30 mm^2 bactericidal zone, E. coli J5 [2] | pmol added to well to achieve a 30 mm^2 bactericidal zone, E. coli O111:B4 [3] | also measured
1 | Cecropin A (KWKLFKKIEKVGQNIRDGIIKAGPAVAVVGQATQIAK; ends and bridges not checked; UniProt P01507 27-63, looked up) [antibacterial peptide of lepidopteran insects (Sigma), reference compound] | 242.0 ng | 395 nM | – | – | heparin binding capacity [1]: 242 ng heparin/2 μg peptide; Kd [1, 4]: 395 nM
2 | KSKVGFLIQLFHKK [BPI.127] | – | – | 406.01 pmol | b (no detectable activity up to 5 μg/well) | pmol added to well to achieve a 30 mm^2 bactericidal zone, S. aureus (Staphylococcus aureus): b (no detectable activity up to 5 μg/well)
3 | A2: Asp-N fragment of rBPI23, residues 15-38 (DYASQQGTAALQKELKRIKIPDYS; Asp-N fragment; UniProt P17213 46-69, looked up, fragment) | – | – | – | – | cpm ^3H-Heparin bound [1]: 3,042 ± 162 cpm
4 | Polymyxin B peptide [PMB Peptide, reference compound] | 58.01 ng | 309 nM | – | – | heparin binding capacity [1]: 58.0 ng heparin/2 μg peptide
5 | C3: CNBr fragment of rBPI23, residues 71-100 (VPNVGLKFSISNANIKISGKWKAQKRFLKM; CNBr fragment; UniProt P17213 102-131, looked up, fragment) | – | – | – | – | cpm ^3H-Heparin bound [1]: 81,655 ± 3,163 cpm
6 | IKISGKWKAAβ-(1-naphthyl)Aβ-(1-naphthyl)RFLK (IKISGKWKA[1Nal][1Nal]RFLK) [BPI.121] | – | – | 154.35 pmol | 1,856.40 pmol | pmol added to well to achieve a 30 mm^2 bactericidal zone, S. aureus (Staphylococcus aureus): 941,388.07 pmol
7 | KSKVGAD-β-(1-naphthyl)LIQLFHKK (KSKVG[d1Nal]LIQLFHKK) [BPI.129] | – | – | 1,685.10 pmol | b (no detectable activity up to 5 μg/well) | pmol added to well to achieve a 30 mm^2 bactericidal zone, S. aureus (Staphylococcus aureus): b (no detectable activity up to 5 μg/well)
8 | IKISGKAβ-(1-naphthyl)KAQAβ-(1-naphthyl)RFLK (IKISGK[1Nal]KAQ[1Nal]RFLK) [BPI.112] | – | – | 1,485.92 pmol | b (no detectable activity up to 5 μg/well) | pmol added to well to achieve a 30 mm^2 bactericidal zone, S. aureus (Staphylococcus aureus): b (no detectable activity up to 5 μg/well)
9 | C4: CNBr fragment of rBPI23, residues 101-111 (SGNFDLSIEGM; CNBr fragment; UniProt P17213 132-142, looked up, fragment) | – | – | – | – | cpm ^3H-Heparin bound [1]: 4,686 ± 4 cpm
10 | CIKISGKWKAQKRFLKC [BPI.65 (red.)] | 279.6 ng | 216 nM | – | – | heparin binding capacity (in words) [1]: extremely high heparin capacity; bactericidal activity (in words) [2]: highly bactericidal
11 | GTAALQKELKRIKIP [BPI.54] | 64.3 ng | 237 nM | b (no detectable activity up to 5 μg/well) | b (no detectable activity up to 5 μg/well) | heparin binding capacity (in words) [1]: low heparin binding capacity; bactericidal activity (in words) [2]: little or no bactericidal activity
12 | C2: CNBr fragment of rBPI23, residues 57-70 (DIREFQLPSSQISM; CNBr fragment; UniProt P17213 88-101, looked up, fragment) | – | – | – | – | cpm ^3H-Heparin bound [1]: 6,262 ± 182 cpm
13 | magainin II amide [reference compound] | 453.7 ng | 3170 nM | – | – | heparin binding capacity [1]: 437.7 ng heparin/2 μg peptide; Kd [1, 4]: 3170 nM
14 | IKISGKWKAAARFLK [BPI.45] | 160.7 ng | 153 nM | 1,301.80 pmol | 4,849.00 pmol | –
15 | KSKVWLIQLFHKK [BPI.11] | 290.5 ng | 744 nM | 638.30 pmol | b (no detectable activity up to 5 μg/well) | –
16 | Limulus anti-LPS factor [LALF, reference compound] | 195.3 ng | 1290 nM | – | – | heparin binding capacity [1]: 195.3 ng heparin/2 μg peptide; Kd [1, 4]: 1290 nM
